Test results as given in patent publication US6756402B2, “Cyclipostins, process for their preparation and use thereof” (Aventis Pharma Deutschland GmbH, priority 2000, dated 2004).
Like-named read-outs stand apart in the source and are kept apart here.

What was measured:
[1] = Solubility (characterization of the isolated substance)
[2] = target: T1, hormone-sensitive lipase (HSL) (Rattus norvegicus, UniProt P15304); assay: Inhibition of partially purified hormone-sensitive lipase (HSL) from rats, [3H]trioleoylglycerol substrate; format: biochemical
T1 construct: Isolated rat lipocytes were obtained from epididymal fatty tissue of nontreated male rats; from tissue; host or cells: rat epididymal fat tissue lipocytes (Wistar), partially purified
T1 sequence (P15304 1-768 isoform P15304-2): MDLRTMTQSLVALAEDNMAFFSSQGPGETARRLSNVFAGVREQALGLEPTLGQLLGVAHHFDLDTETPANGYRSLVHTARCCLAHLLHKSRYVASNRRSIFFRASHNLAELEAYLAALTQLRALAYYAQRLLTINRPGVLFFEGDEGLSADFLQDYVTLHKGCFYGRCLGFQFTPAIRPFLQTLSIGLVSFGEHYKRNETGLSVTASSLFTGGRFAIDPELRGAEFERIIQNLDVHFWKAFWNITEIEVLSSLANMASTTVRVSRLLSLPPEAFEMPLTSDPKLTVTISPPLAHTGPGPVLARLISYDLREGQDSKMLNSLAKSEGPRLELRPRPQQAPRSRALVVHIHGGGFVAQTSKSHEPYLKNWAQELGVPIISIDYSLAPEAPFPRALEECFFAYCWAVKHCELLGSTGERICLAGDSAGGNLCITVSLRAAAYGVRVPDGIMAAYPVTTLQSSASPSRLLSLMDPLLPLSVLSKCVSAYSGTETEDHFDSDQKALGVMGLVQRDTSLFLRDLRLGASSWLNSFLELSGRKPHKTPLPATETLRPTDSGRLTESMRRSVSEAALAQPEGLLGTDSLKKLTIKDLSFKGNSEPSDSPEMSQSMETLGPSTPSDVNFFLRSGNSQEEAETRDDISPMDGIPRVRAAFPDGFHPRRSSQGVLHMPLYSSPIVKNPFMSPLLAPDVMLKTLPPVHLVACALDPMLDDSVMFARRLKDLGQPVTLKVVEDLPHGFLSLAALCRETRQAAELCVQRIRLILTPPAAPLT
Procedure: Isolated rat lipocytes were obtained from epididymal fatty tissue of nontreated male rats (Wistar, 220-250 g) by collagenase treatment according to published procedures (e.g., S. Nilsson et al., Anal. Biochem. 158:399-407 (1986); G. Fredrikson et al., J. Biol. Chem. 256, 6311-6320 (1981); H. Tornquist et al., J. Biol. Chem. 251:813-819 (1976)). The lipocytes from 10 rats were washed three times by flotation with 50 ml of homogenization buffer in each case ([…] TRIS/HCl, pH 7.4, 0.25 M sucrose, 1 mM EDTA, 1 mM DTT, 10 μg/ml of leupeptin, 10 μg/ml of antipain, 20 μg/ml of pepstatin) and finally taken up in 10 ml of homogenization buffer. The lipocytes were homogenized in a Teflon-in-glass homogenizer (Braun-Melsungen) by means of 10 strokes at 1500 rpm and 15° C. The homogenisate was centrifuged (Sorvall SM24 tubes, 5000 rpm, 10 min, 4° C.). The lower layer between the overlying fatty layer and the pellet was removed and the centrifugation was repeated. The lower layer resulting from this was centrifuged again (Sorvall SM24 tubes, 20000 rpm, 45 min, 4° C.). The lower layer was removed and treated with 1 g of heparin-sepharose (Pharmacia-Biotech, CL-6B, washed 5× with 25 mM Tris/HCl, pH 7.4, 150 mM NaCl). After incubation for 60 min at 4° C. (shaken at intervals of 15 min), the batch was centrifuged (Sorvall SM24 tubes, 3000 rpm, 10 min, 4° C.). The supernatant was brought to pH 5.2 by addition of acetic acid and incubated at 4° C. for 30 min. The precipitates were collected by centrifugation (Sorvall SS34, 12000 rpm, 10 min, 4° C.) and suspended in 2.5 ml of 20 mM Tris/HCl, pH 7.0, 1 mM EDTA, 65 mM NaCl, 13% of sucrose, 1 mM DTT, 10 μg/ml of leupeptin/pepstatin/antipain. The suspension was dialyzed overnight at 4° C. against 25 mM Tris/HCl, pH 7.4, 50% of glycerol, 1 mM DTT, 10 μg/ml of leupeptin, pepstatin, and antipain, and then applied to a hydroxylapetite column (0.1 g per 1 ml of suspension, equilibrated with 10 mM potassium phosphate, pH 7.0, 30% of glycerol, 1 mM DTT). The column was washed with four volumes of equilibration buffer at a flow rate of 20 to 30 ml/h. The HSL was eluted with a volume of equilibration buffer which contained 0.5 M potassium phosphate, then dialyzed (see above), and was concentrated 5 to 10 times by ultrafiltration (Amicon Diaflo PM 10 Filter) at 4° C. The partially purified HSL could be stored at −70° C. for 4 to 6 weeks.
For the preparation of the substrates, 25-50 μCi of [^3H]trioleoylglycerol (in toluene), 6.8 μMol of unlabeled trioleoylglycerol and 0.6 mg of phospholipid (phosphatidylcholine/phosphatidylinositol 3:1 w/v) were mixed, dried by means of N2 and then taken up in 2 ml of 0.1 M KPi (pH 7.0) by ultrasonic treatment (Branson 250, microtips, setting 1-2, 2×1 min at a 1 min interval). After addition of 1 ml of KPi and fresh ultrasonic treatment (4×30 sec on ice at 30 sec intervals), 1 ml of 20% BSA (bovine serum albumin) (in KPi) was added (final concentration of trioleoylglycerol at 1.7 mM). For the reaction, 100 μl of substrate solution were pipetted into 100 μl of HSL solution (HSL prepared as above, diluted in 20 mM KPi, pH 7.0, 1 mM EDTA, 1 mM DTT, 0.02% BSA, 20 μg/ml of pepstatin, 10 μg/ml of leupeptin) and incubated at 37° C. for 30 min. After addition of 3.25 ml of methanol/chloroform/heptane (10:9:7) and of 1.05 ml 0.1 M K2CO3, 0.1 M boric acid (pH 10.5), the batch was mixed well and finally centrifuged (800×g, 20 min). After phase separation, one equivalent of the upper phase (1 ml) was removed and the radioactivity was determined by liquid scintillation measurement.
Substances were generally tested in four independent batches. The inhibition of the enzymatic activity of the HSL by a test substance was determined by the comparison with a noninhibited control reaction. The calculation of the IC50 value was carried out by means of an inhibitory curve using at least 10 concentrations of the test substance. […]

[3] = test system: lipolysis in rat adipocytes; assay: Inhibition of lipolysis in rat adipocytes; format: cell-based; conditions: Adipocyte
[4] = target: T2, HSL from rats (Rattus norvegicus, UniProt P15304); assay: Inhibition of HSL from rats with NBD as substrate; format: biochemical
T2 construct: from tissue; host or cells: rat
T2 sequence (P15304 1-768 isoform P15304-2): T1 sequence (P15304 1-768 isoform P15304-2)

[5] = test system: lipases; conditions: background statement on the known methyl analogue; cited from earlier work
[6] = trioleoylglycerol as substrate, read-out: IC50, inhibition of hormone-sensitive lipase from rats
[7] = NBD (4-chloro-7-nitrobenzo-2-oxa-1,3-diazole) as substrate, read-out: concentrations inhibiting HSL from rats

## CCCCCCCCCCCCCCCCOP1(=O)OCC2COC(=O)C2=C(CC)O1 (stereo not shown) [Cyclipostin S]
[1]
  solubility in oxygen-containing organic solvents: soluble
  solubility in water and petroleum ether: only slightly soluble
[2]; [6]
  IC50: 20 nM

## CCCCCCCCCCCCCCCOP1(=O)OCC2COC(=O)C2=C(C)O1 (stereo not shown) [Cyclipostin R]
[1]
  solubility in oxygen-containing organic solvents: soluble
  solubility in water and petroleum ether: only slightly soluble
[2]; [6]
  IC50: 10 nM
[3]
  IC50: ~200 nM
[4]; [7]
  IC50: 4 to 10 nM

## CO[P@]1(=O)OC[C@H]2COC(=O)C2=C(C)O1 [CGA 134 736]
[5]
  selective lipase-inhibiting properties: no selective lipase-inhibiting properties

## CCCC1=C2C(=O)OCC2COP(=O)(OCCCCCCCCCCCCCC(C)C)O1 (stereo not shown) [Cyclipostin T2]
[1]
  solubility in oxygen-containing organic solvents: soluble
  solubility in water and petroleum ether: only slightly soluble
[2]; [6]
  IC50: 60 nM

## CCC(=O)CCCCCCCCCCCCCOP1(=O)OC[C@H]2COC(=O)C2=C(C)O1 (stereo partly shown) [Cyclipostin F]
[1]
  solubility in oxygen-containing organic solvents: soluble
  solubility in water and petroleum ether: only slightly soluble

## CCCCC(O)CCCCCCCCCCCOP1(=O)OCC2COC(=O)C2=C(C)O1 (stereo not shown) [Cyclipostin A]
[1]
  solubility in oxygen-containing organic solvents: soluble
  solubility in water and petroleum ether: only slightly soluble
[2]; [6]
  IC50: 20 nM
[3]
  IC50: ~200 nM
[4]; [7]
  IC50: 4 to 10 nM

## CCCC(O)CCCCCCCCCCCCO[P@]1(=O)OC[C@H]2COC(=O)C2=C(C)O1 (stereo partly shown) [Cyclipostin B]
[1]
  solubility in oxygen-containing organic solvents: soluble
  solubility in water and petroleum ether: only slightly soluble

## CCCCCCCCCCCCCCOP1(=O)OCC2COC(=O)C2=C(C)O1 (stereo not shown) [Cyclipostin N]
[1]
  solubility in oxygen-containing organic solvents: soluble
  solubility in water and petroleum ether: only slightly soluble
[2]; [6]
  IC50: 450 nM

## CC1=C2C(=O)OCC2COP(=O)(OCCCCCCCCCCCCC(C)C)O1 (stereo not shown) [Cyclipostin R2]
[1]
  solubility in oxygen-containing organic solvents: soluble
  solubility in water and petroleum ether: only slightly soluble
[2]; [6]
  IC50: 220 nM

## CC1=C2C(=O)OCC2COP(=O)(OCCCCCCCCCCCCCC(C)C)O1 (stereo not shown) [Cyclipostin P2]
[1]
  solubility in oxygen-containing organic solvents: soluble
  solubility in water and petroleum ether: only slightly soluble
[2]
  IC50: 40 nM
[3]
  IC50: ~200 nM
[4]
  IC50: 4 to 10 nM

## CCCCCCCCCCCCCCCCOP1(=O)OCC2COC(=O)C2=C(C)O1 (stereo not shown) [Cyclipostin P]
[1]
  solubility in oxygen-containing organic solvents: soluble
  solubility in water and petroleum ether: only slightly soluble
[2]
  IC50: 30 nM
[3]
  IC50: ~200 nM
[4]
  IC50: 4 to 10 nM

## CCCCCCCCCCCCCCCCOP1(=O)OCC2COC(=O)C2=C(CCC)O1 (stereo not shown) [Cyclipostin T]
[1]
  solubility in oxygen-containing organic solvents: soluble
  solubility in water and petroleum ether: only slightly soluble
[2]; [6]
  IC50: 200 nM
